Data taken from patent US12016834B2, “Small molecule inhibitors of SLC25A1” (GEORGETOWN UNIVERSITY, priority 2017, dated 2024).

Legend:
SLC25A1 = SLC25A1 (Homo sapiens, UniProt P53007); conditions: cited from earlier work
H1299 cells = test: Sphere forming / self-renewal assay; format: cell-based, human; conditions: one week after treatment; BTA 2 mM, CTPI 1 mM (FIG. 9F)
Procedure: Growth of monolayers and sphere cultures. Tumor cell lines were grown as monolayers in complete Dulbecco's Modified Eagle's Media (DMEM, Gibco; supplemented with 10% fetal bovine serum and 1% of 5,000 units/mL of penicillin-streptomycin (pen-strep), Gibco). To generate spheroids, cells were grown in Falcon bacteriological petri dishes coated with 2% poly(2-hydroxyethyl methacrylate) dissolved in 100% ethanol. The growth media was DMEM/F12 (Gibco) supplemented with 20 ng/mL of epidermal growth factor (EGF), 5 ng/mL of fibroblast growth factor, 0.375% 100× N2 supplements (Gibco), and 1% pen-strep. Monolayer cells were dissociated using 0.25% trypsin-edta (Gibco), whereas spheroid cultures were dissociated using StemPro Accutase (Gibco). Patient derived cell lines were grown as described below in the primary lung cultures section.
Self-renewal assays. Tumor cells cultured as spheroids were dissociated and diluted in 2× sphere media containing 1% methyl cellulose, which was previously dissolved in cold DMEM/F12 media. Either 200, 500, or 1000 cells were then plated in each 96 well and were incubated in the presence or absence of drugs, as indicated. The spheres were allowed to form for a period of a week to ten days, at which point they were counted. Six biological replicates were used for quantification of the results.

SLC25A1, sequence (P53007 14-311, species assumed): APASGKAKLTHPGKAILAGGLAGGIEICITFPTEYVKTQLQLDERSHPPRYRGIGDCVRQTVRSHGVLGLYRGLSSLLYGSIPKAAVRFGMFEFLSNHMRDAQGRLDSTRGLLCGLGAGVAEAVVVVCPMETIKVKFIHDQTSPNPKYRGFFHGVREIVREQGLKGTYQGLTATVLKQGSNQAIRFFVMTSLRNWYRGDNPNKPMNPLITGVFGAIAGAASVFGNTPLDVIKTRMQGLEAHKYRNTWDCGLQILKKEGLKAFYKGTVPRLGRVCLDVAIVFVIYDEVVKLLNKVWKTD

Structure (SMILES): O=C(O)c1cccc(C(=O)O)c1C(=O)O [BTA, 1,2,3, Benzenetricarboxylic acid]
- concentration required for inhibition of SLC25A1 (SLC25A1): millimolar concentration
- sphere forming capacity (H1299 cells): reduced sphere forming capacity
